EP0986381B1, “USE OF DITERPENES LIKE HYPOESTOXIDES FOR THE MANUFACTURE OF A MEDICAMENT FOR IMMUNOSUPPRESSION, ANTICANCER AND ANTIVIRAL TREATMENT” (Immune Modulation, Inc., priority 1997, dated 1998)
pIC50: −log10 of the molar value.

What was measured:
[1] = Colorimetric MTT cytotoxicity assay, CV-1 cells; format: cell-based; conditions: african green monkey, read-out: concentration giving cytotoxicity of greater than 50%
Procedure: Normal African green monkey kidney cells (CV-1): CV-1 cells from the Hybriwix™ Probe Systems: Herpes Antiviral Susceptibility Test kit (Diagnostic Hybrids, Inc., Athens, OH) were used for toxicity testing of JO-4A by MTT assay. Colorimetric MTT assay: Cytotoxic effects of drugs were determined in vitro by a colorimetric assay (Mosmann, T., J. Immunol. Methods, 65: 55-63, 1983). Briefly, 1000 cells per well (100 µl) in a 96-well flat-bottom plate were cultured either with the culture medium alone or with various concentrations of drug at 37°C, in a 5% CO2-95% air humidified incubator for 72 hours. At the end of the culture, 10 µl of 5 mg/ml sterile solution of 3-(4,5-Dimethylthiazol-2yl)-2,5-diphenyltetrazolium bromide (MTT) (Sigma Chemicals, Saint Louis, MO) in PBS was added per well and the incubation was resumed for an additional 4 hours. Acid-isopropanol (100 µl of 0.04 N HCl in isopropanol) was added to all wells and kept at room temperature for 30 minutes. Mixing with a multichannel pipetter dissolved the dark blue crystals and the absorbance was measured at 545-650 nm using an ELISA plate reader.

HSV-2 = assay: In vitro HSV-2 replication assay, Hybriwix Probe Systems; format: cell-based, Herpes simplex virus
Procedure: The antiviral activity of the drug was determined using the Hybriwix™ Probe Systems (Herpes Antiviral Susceptibility Test kit: Diagnostic Hybrids, Inc., Athens, OH). Briefly, either HSV-1 or HSV-2 isolates (ATTC, Rockville, MD) were pre-adsorbed at 37°C and 5% CO2 in a humidified incubator for 60 minutes on African green monkey Kidney cells in a 24-well flat-bottom plate. Following pre-adsorption, the viral inoculum was removed and the growth medium containing various concentrations of appropriate drug was placed in appropriate wells. The culture was continued for 48 hours for the amplification of the virus. Quantification of the HSV DNA present in each well was determined by the nucleic acid hybridization method. The cells and/or virus were lysed with DNA wicking agent and the single-stranded DNA was immobilized on a Hybriwix™ filter by a vertical capillary absorption of the wicking agent/DNA solution. The amount of HSV target DNA from each well was determined using radioactive (I^125)-HSV DNA probe containing genetic sequences, which are homologous to HSV-1 or HSV-2 sequences. The amount of radioactivity present on the Hybriwix™ was dependent upon the amount of HSV DNA present after culture, and was determined in a gamma counter (Packard Instrument Co., Meriden, CT).

[2] = test system: human two-way mixed lymphocyte reaction (PBMCs from two individuals); assay: Two-way mixed leukocyte reaction (MLR), 3H-thymidine incorporation; format: cell-based
Procedure: The MLR is an assay recognized by those skilled in the art as an in vitro predictor of in vivo immunosuppressant activity. The MLR is an in vitro model of T-cell recognition of foreign major histocompatibility complex (MHC) gene products and was used as a predictive test of cell-mediated graft rejection (Abbas, A.K., et al., eds, 1994, 2nd ed. Cellular and Molecular Immunology, W.B. Saunders Co., USA). Graft rejection is carried out by T cells that recognize MHC molecules and destroy the graft. This process can be studied in vivo, but in-depth analysis, especially in humans, required the development of tests such as the MLR as an in vitro correlate of graft rejection. (Janeway, Chas. and Travers, Paul, Immunobiology, 2nd Ed., Garland Publishing, Inc, New York (1996)). It is well known in the art that the MLR is induced by co-culturing mononuclear leukocytes from one individual with mononuclear leukocytes derived from another individual. If there are differences in the alleles of the MHC genes between the two individuals, a large proportion of the mononuclear cells will proliferate over a period of 4-7 days, and is referred to as allogeneic MLR. The level of proliferative response is measured by incorporation of ^3H-thymidine into DNA during cell replication. Because the cells from each donor react and proliferate against the other, the resultant response is known as a "two-way MLR". JO-4 was tested in the MLR for its ability to "immunosuppress".
Mononuclear cells (at 2 x 10^6/ml) of each donor were first mixed thoroughly together in a 50 ml tube at a 1:1 ratio with volume. […] Cells were harvested onto glass fiber filters (Packard, Downers Grove, IL) with a 96-well automatic cell harvester (TOMTEC, Hamden, CT) and were counted directly on a Matrix 9600 beta counter (Packard).
Data were expressed as percent inhibition (% Inhibition) according to the following formula: % Inhibition = 100 -((Counts per minute (CPM) for wells with drug x 100))/(CPM for wells without drug) [formula] […]

C=C1C(=O)C[C@H]2C[C@@H]3O[C@@]3(C)CC[C@@H]3O[C@@]3(C)C[C@@H](OC(C)=O)[C@H]1C2(C)C [JO-4, hypoestoxide]
CC50 at 72 h [1]: > 50 µM | inhibition at 3.125 µM (HSV-2; Human alphaherpesvirus 2, 48 h, 3.125 µM, two days, African green monkey kidney cells): 58% | inhibition at 12.5 µM (HSV-2; Human alphaherpesvirus 2, 48 h, 12.5 µM, two days, African green monkey kidney cells): 65% | pIC50 (HSV-2; Human alphaherpesvirus 2, 48 h, two days, African green monkey kidney cells, read-out: IC50 dose on HSV-1 inhibition (paragraph on HSV-2 replication)): > 5.51 | effect on two-way MLR ([2]; JO-4 at 1.0, 0.5 or 0.25 µg/ml, 5 days): inhibited

C=C1C(=O)CC2CC3OC3(C)CCC3OC3(C)CC(O)C1C2(C)C (stereo not drawn) [JO-4A]
CC50 at 72 h [1]: ~25 µM | replication and growth of HSV-2 (HSV-2; African Green Monkey kidney cells): inhibited | pIC50 ([2]; Homo sapiens, Leukocyte, 120 h, 5 days): 5.00 to 5.30 | inhibition at 10 µM ([2]; Homo sapiens, Leukocyte, at 10.0 µM): 64%
